Test results from patent EP0601187A1, “NOVEL ANTIBIOTIC AND PRODUCTION AND USE THEREOF” (HIGETA SHOYU CO., LTD., priority 1992, dated 1993).
Converted amounts (≈) assume the structure as drawn. Numbered stars: 1 amine (or outer) side, 2 acyl side, 3 side chain; on linkers, the order of the positions; unused ones are H or OH. Square brackets hold non-standard residues; d marks the D form. Peptide text beside a SMILES is read from it. Gly(Dodecyl) = CCCCCCCCCCCC[C@H](N)C(=O)O; X1 = CCCCCCCCCCCCC[C@H](N[*:1])C(=O)[*:2]

Legend:
[1] = system: Candida tropicalis IFO3256; conditions: IFO3256, pH 6.8
[2] = system: Candida albicans IFM4009, Aspergillus fumigatus Tsukuba No. 12, Cryptococcus neoformans 145A; experiment: Effectiveness in systemically fungi-infected mice; assay type: in vivo; conditions: mice intravenously inoculated with clinically isolated strains
Source text: As one example of the test of testing the effectiveness of the active substances, HUT57A or HUT57B may be administered to systemically fungi-infected mice, to which various clinically isolated strains (Candida albicans IFM4009, Aspergillus fumigatus Tsukuba No. 12, Cryptococcus neoformans 145A) were intravenously inoculated, whereby the effectiveness of administered the substance may be examined.

[3] = system: Aspergillus flavas IAM2044; conditions: pH 6.8
[4] = system: Trichophyton rubrum IFO9185; conditions: pH 6.8
[5] = system: Fusarium oxysporum HUT5015; conditions: pH 6.8
[6] = system: Aspergillus fumigatus IAM2612; conditions: IAM2612, pH 6.8
ddy-N mice = experiment: Acute toxicity test, single intravenous injection; assay type: in vivo
Experimental: In the next test, mice of the same kind as mentioned above were used. Each of HUT57A and HUT57B was dissolved in DMSO (dimethylsulfoxide)-castor oil-5 % Glc solution, and the resulting solution was injected to the caudal vein of each of the five male mice once or plural times. For the single injection, the solution was administered to the mice each in an amount of 200 mg per kg of the body weight; and for the plural injections, it was administered to them 14 times each in an amount of 30 mg/kg/day.

[7] = system: Cryptococcus neoformans IFO1320; conditions: IFO1320, pH 6.8
[8] = system: Trichosporon cutaneum IFO1500; conditions: pH 6.8
[9] = system: Diaporothe citiri IFO9170; conditions: pH 6.8
[10] = system: Botrytis cinerea IFO31831; conditions: pH 6.8
[11] = system: Mucor guilliermondii IFO9403; conditions: pH 6.8
[12] = system: Trichophyton mentagrophytes IFO6124; conditions: pH 6.8
Candida albicans DUC1001 = experiment: Antifungal activity in vitro by counting the number of the living cells; assay type: cell-based; conditions: just after addition at 25, 40 and 80 µg/ml
[13] = system: Fusarium solani ATCC11712; conditions: ATCC11712, pH 6.8

For `CCCCCCCCCCCC[C@@H]1NC(=O)[C@H](CCC(N)=O)NC(=O)[C@H](CC(N)=O)NC(=O)[C@H](Cc2ccc(O)cc2)NC(=O)[C@H](CC(N)=O)NC(=O)[C@@H]2CCCN2C(=O)[C@H](CO)NC(=O)[C@H](CC(N)=O)NC1=O` [HUT57A, X-Asn-Ser-Pro-Asn-Tyr-Asn-Gln] (cyclo([Gly(Dodecyl)]NSPNYNQ)), the MIC [1] was 11.4 µg/mL (≈ 10.9 µM), the “effectiveness to systemic mycosis in mice” value [2] was “effective” and the MIC [3] was 2.3 µg/mL (≈ 2.2 µM). For the same compound, the “Hemolyzation Activity” value (Hemolyzation Activity) was “-”, the MIC [4] was 6.2 µg/mL (≈ 5.94 µM) and the MIC [5] was 1.2 µg/mL (≈ 1.15 µM). The MIC [6] was 1.3 µg/mL (≈ 1.25 µM), the “LD₅₀ by single intravenous injection” value (ddy-N mice) was at least 200 mg/kg and the MIC [7] was 6.0 µg/mL (≈ 5.75 µM). The MIC [8] was 23.0 µg/mL (≈ 22 µM), the MIC [9] was 1.0 µg/mL (≈ 0.959 µM) and the MIC [10] was 2.2 µg/mL (≈ 2.11 µM). For the same compound, the MIC [11] was 1.2 µg/mL (≈ 1.15 µM), the MIC [12] was 10.0 µg/mL (≈ 9.59 µM) and the “number of the living cells” value (Candida albicans DUC1001) was “noticeably decreased”. It also gave an MIC [13] of 2.8 µg/mL (≈ 2.68 µM).

With `CCCCCCCCCCCCC[C@@H]1NC(=O)[C@H](CCC(N)=O)NC(=O)[C@H](CC(N)=O)NC(=O)[C@H](Cc2ccc(O)cc2)NC(=O)[C@H](CC(N)=O)NC(=O)[C@@H]2CCCN2C(=O)[C@H](CO)NC(=O)[C@H](CC(N)=O)NC1=O` [HUT57B, X-Asn-Ser-Pro-Asn-Tyr-Asn-Gln] (cyclo([X1]NSPNYNQ)) the MIC [1] was 11.2 µg/mL (≈ 10.6 µM), the “effectiveness to systemic mycosis in mice” value [2] was “effective” and the MIC [3] was 2.4 µg/mL (≈ 2.27 µM). The “Hemolyzation Activity” value (Hemolyzation Activity) was “-”, the MIC [4] was 5.4 µg/mL (≈ 5.11 µM) and the MIC [5] was 1.2 µg/mL (≈ 1.14 µM). For the same compound, the MIC [6] was 1.3 µg/mL (≈ 1.23 µM), the “LD₅₀ by single intravenous injection” value (ddy-N mice) was at least 200 mg/kg and the MIC [7] was 5.2 µg/mL (≈ 4.92 µM). It also gave an MIC [8] of 23.0 µg/mL (≈ 21.8 µM), an MIC [9] of 1.0 µg/mL (≈ 0.946 µM) and an MIC [10] of 2.1 µg/mL (≈ 1.99 µM). The MIC [11] was 1.2 µg/mL (≈ 1.14 µM), the MIC [12] was 10.0 µg/mL (≈ 9.46 µM) and the “number of the living cells” value (Candida albicans DUC1001) was “noticeably decreased”. For the same compound, the MIC [13] was 2.8 µg/mL (≈ 2.65 µM).
